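Growth conditions: 96-well plates. Treatment: test compound, 48 hours, 5 concentrations. Analysis: linear interpolation between bracketing concentrations; unreached endpoints set to highest concentration. The concentration for 50% growth inhibition is given as GI50.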 The source made the active and inactive calls. Cut-off read from the data, not from the text of the source: active = GI50 up to about 1.1 µM and inactive = higher.
Columns and labels:
Assay in all cases: NCI tumour cell line growth inhibition, 48 h
NCI-H226 = system: NCI-H226
SK-OV-3 = system: SK-OV-3
HT-29 = system: HT-29
786-0 = system: 786-0
OVCAR-8 = system: OVCAR-8
KM12 = system: KM12
UACC-257 = system: UACC-257
UO-31 = system: UO-31
SK-MEL-28 = system: SK-MEL-28
NCI/ADR-RES = system: NCI/ADR-RES
LOX IMVI = system: LOX IMVI
SR = system: SR
RXF 393 = system: RXF 393
SK-MEL-5 = system: SK-MEL-5
OVCAR-4 = system: OVCAR-4
UACC-62 = system: UACC-62
MOLT-4 = system: MOLT-4
T47D = system: T47D
SF-539 = system: SF-539
RPMI-8226 = system: RPMI-8226

SMILES | GI50 (NCI-H226) | GI50 (SK-OV-3) | GI50 (HT-29) | GI50 (786-0) | GI50 (OVCAR-8) | GI50 (KM12) | GI50 (UACC-257) | GI50 (UO-31) | GI50 (SK-MEL-28) | GI50 (NCI/ADR-RES) | GI50 (LOX IMVI) | GI50 (SR) | GI50 (RXF 393) | GI50 (SK-MEL-5) | GI50 (OVCAR-4) | GI50 (UACC-62) | GI50 (MOLT-4) | GI50 (T47D) | GI50 (SF-539) | GI50 (RPMI-8226)
CN(CCNC(=O)c1n[nH]c2c1Cc1ccccc1-2)CCNC(=O)c1n[nH]c2c1Cc1ccccc1-2 | 19.1 µM (inactive) | 16.5 µM (inactive) | 17.7 µM (inactive) | 16 µM (inactive) | 20.9 µM (inactive) | 17.3 µM (inactive) | 18.8 µM (inactive) | 19.4 µM (inactive) | 18.3 µM (inactive) | 37.8 µM (inactive) | 18.9 µM (inactive) | 19.5 µM (inactive) | 15.3 µM (inactive) | 16.9 µM (inactive) | 15.9 µM (inactive) | 19 µM (inactive) | 19.4 µM (inactive) | 18.8 µM (inactive) |  | 
CN(C)c1ccc(/C=N/c2ccc(-c3nc4ccccc4[nH]3)cc2)cc1 | > 100 µM (inactive) | > 100 µM (inactive) | 39.5 µM (inactive) | 74.8 µM (inactive) | > 100 µM (inactive) | 32.5 µM (inactive) | > 100 µM (inactive) | 56.4 µM (inactive) | > 100 µM (inactive) | 1.09 µM (active) | 51.5 µM (inactive) | 12.9 µM (inactive) | 24.2 µM (inactive) | 56.9 µM (inactive) | 35.9 µM (inactive) |  | 25.7 µM (inactive) | 31.3 µM (inactive) | 90.4 µM (inactive) | 36.1 µM (inactive)
Cc1ccc(S(=O)(=O)NC(=N)N(C)N=O)cc1 | > 100 µM (inactive) | 18.5 µM (inactive) | > 100 µM (inactive) | > 100 µM (inactive) | > 100 µM (inactive) | > 100 µM (inactive) | > 100 µM (inactive) | > 100 µM (inactive) | > 100 µM (inactive) | > 100 µM (inactive) | > 100 µM (inactive) | > 100 µM (inactive) | > 100 µM (inactive) |  | > 100 µM (inactive) | 26.4 µM (inactive) | > 100 µM (inactive) | > 100 µM (inactive) | > 100 µM (inactive) | > 100 µM (inactive)
COc1cccc(/N=N/C(=N\NC(=O)c2ccc(C)cc2)c2ccc(N(CCC#N)CCC#N)cc2C)c1 | > 100 µM (inactive) | 48.2 µM (inactive) | > 100 µM (inactive) | > 100 µM (inactive) | 35.1 µM (inactive) | 73.5 µM (inactive) | 42.8 µM (inactive) | 59.8 µM (inactive) | > 100 µM (inactive) | > 100 µM (inactive) | > 100 µM (inactive) | 61.1 µM (inactive) | 74.5 µM (inactive) | > 100 µM (inactive) | 25.1 µM (inactive) |  | > 100 µM (inactive) | 41.1 µM (inactive) | > 100 µM (inactive) | > 100 µM (inactive)
CCCCNc1nc(NC2OCC(OC(C)=O)C(OC(C)=O)C2OC(C)=O)c(N=O)c(=O)n1C (configuration not stated) | > 10 µM (inactive) | > 10 µM (inactive) | > 10 µM (inactive) | > 10 µM (inactive) | > 10 µM (inactive) | > 10 µM (inactive) | > 10 µM (inactive) |  | > 10 µM (inactive) | > 10 µM (inactive) | > 10 µM (inactive) | > 10 µM (inactive) | > 10 µM (inactive) | > 10 µM (inactive) | > 10 µM (inactive) | > 10 µM (inactive) | > 10 µM (inactive) | > 10 µM (inactive) | > 10 µM (inactive) | > 10 µM (inactive)
CC1=C(OC2OC(CO)C(O)C(O)C2O)C(=O)C[C@H]2C1=CC[C@@H]1[C@@]2(C)C(=O)C[C@]2(C)[C@@H]([C@@](C)(O)C(=O)CCC(C)(C)O)[C@H](O)C[C@@]12C (some centres not stated) | > 100 µM (inactive) | > 100 µM (inactive) | > 100 µM (inactive) | > 100 µM (inactive) | > 100 µM (inactive) | > 100 µM (inactive) | > 100 µM (inactive) | > 100 µM (inactive) | > 100 µM (inactive) | > 100 µM (inactive) | > 100 µM (inactive) | > 100 µM (inactive) | > 100 µM (inactive) | > 100 µM (inactive) | > 100 µM (inactive) | > 100 µM (inactive) | > 100 µM (inactive) | > 100 µM (inactive) | > 100 µM (inactive) | 
CC1=NN=C(N)N/C1=C\C(Sc1ccc(Cl)cc1)c1ccc(Cl)cc1Cl (configuration not stated) | 15.1 µM (inactive) | 18.3 µM (inactive) | 3.59 µM (inactive) | 18.5 µM (inactive) | 13.5 µM (inactive) | 6.41 µM (inactive) | 16.8 µM (inactive) | 11.2 µM (inactive) | 21.8 µM (inactive) | 17.6 µM (inactive) | 14.3 µM (inactive) | > 100 µM (inactive) | 16.3 µM (inactive) | 14.8 µM (inactive) | 17.1 µM (inactive) | 14.7 µM (inactive) | 7.29 µM (inactive) | 14.2 µM (inactive) |  | 14.1 µM (inactive)

Source: ChEMBL document CHEMBL1201862, “PubChem BioAssay data set” (2004)
